Test system: hemoglobin-haptoglobin complex
Experiment: Stability of hemoglobin (as hemoglobin-haptoglobin complex) in samples preserved at 37° C. in preservation solution containing 1 unit/L haptoglobin, Hb measured by latex agglutination method (Examples 1 to 7)
Design: species or system human
Settings: for Hb concentration / Recovery ratio with respect to Hb concentration after 0 days / Recovery ratio with respect to Hb after 0 days: 37° C.
Outline: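 Hemoglobin (~300 µg/L) in 0.5% fecal suspension, or without feces, held at 37 °C for 0–21 days in 40 mmol/L HEPES pH 6.8, 0.1% BSA, 0.1% NaN3, 1 unit/L haptoglobin, with 0–100 mmol/L phenylboronic acid ± sugars. Hb quantified by latex agglutination with anti-human Hb rabbit polyclonal; recovery (%) relative to day 0.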

[1] = Feces 3, sugar 50 mmol/L + phenylboronic acid 15 mmol/L, 7 days
[2] = Feces 3, sugar 50 mmol/L + phenylboronic acid 15 mmol/L, 14 days
[3] = Feces 3, sugar 50 mmol/L + phenylboronic acid 15 mmol/L, 21 days
[4] = Feces 3, sugar 100 mmol/L + phenylboronic acid 0.5 mmol/L, 0 days
[5] = Feces 3, sugar 100 mmol/L + phenylboronic acid 0.5 mmol/L, 7 days
[6] = Feces 3, sugar 100 mmol/L + phenylboronic acid 0.5 mmol/L, 14 days
[7] = Feces 3, sugar 100 mmol/L + phenylboronic acid 15 mmol/L, 0 days
[8] = Feces 3, sugar 100 mmol/L + phenylboronic acid 15 mmol/L, 0 days (Table 7)
[9] = Feces 3, sugar 100 mmol/L + phenylboronic acid 15 mmol/L, 7 days
[10] = Feces 3, sugar 100 mmol/L + phenylboronic acid 15 mmol/L, 7 days (Table 7)
[11] = Feces 3, sugar 100 mmol/L + phenylboronic acid 15 mmol/L, 14 days
[12] = Feces 3, sugar 100 mmol/L + phenylboronic acid 15 mmol/L, 14 days (Table 7)
[13] = Feces 3, sugar 100 mmol/L + phenylboronic acid 15 mmol/L, 21 days
[14] = Feces 3, sugar 100 mmol/L + phenylboronic acid 50 mmol/L, 0 days
[15] = Feces 3, sugar 100 mmol/L + phenylboronic acid 50 mmol/L, 7 days
[16] = Feces 3, sugar 100 mmol/L + phenylboronic acid 50 mmol/L, 14 days
[17] = Feces 3, sugar 100 mmol/L, no phenylboronic acid, 0 days
[18] = Feces 3, sugar 100 mmol/L, no phenylboronic acid, 7 days
[19] = Feces 3, sugar 100 mmol/L, no phenylboronic acid, 14 days
[20] = Feces 3, sugar 100 mmol/L, no phenylboronic acid, 21 days
[21] = No feces, sugar 50 mmol/L + phenylboronic acid 15 mmol/L, 0 days
[22] = No feces, sugar 50 mmol/L + phenylboronic acid 15 mmol/L, 7 days
[23] = No feces, sugar 50 mmol/L + phenylboronic acid 15 mmol/L, 14 days
[24] = No feces, sugar 50 mmol/L + phenylboronic acid 15 mmol/L, 21 days
[25] = No feces, sugar 100 mmol/L + phenylboronic acid 0.5 mmol/L, 0 days
[26] = No feces, sugar 100 mmol/L + phenylboronic acid 0.5 mmol/L, 7 days
[27] = No feces, sugar 100 mmol/L + phenylboronic acid 0.5 mmol/L, 14 days
[28] = No feces, sugar 100 mmol/L + phenylboronic acid 15 mmol/L, 0 days
[29] = No feces, sugar 100 mmol/L + phenylboronic acid 15 mmol/L, 0 days (Table 7)
[30] = No feces, sugar 100 mmol/L + phenylboronic acid 15 mmol/L, 7 days
[31] = No feces, sugar 100 mmol/L + phenylboronic acid 15 mmol/L, 7 days (Table 7)
[32] = No feces, sugar 100 mmol/L + phenylboronic acid 15 mmol/L, 14 days
[33] = No feces, sugar 100 mmol/L + phenylboronic acid 15 mmol/L, 14 days (Table 7)
[34] = No feces, sugar 100 mmol/L + phenylboronic acid 15 mmol/L, 21 days
[35] = No feces, sugar 100 mmol/L + phenylboronic acid 50 mmol/L, 0 days
[36] = No feces, sugar 100 mmol/L + phenylboronic acid 50 mmol/L, 7 days
[37] = No feces, sugar 100 mmol/L + phenylboronic acid 50 mmol/L, 14 days
[38] = No feces, sugar 100 mmol/L, no phenylboronic acid, 0 days
[39] = No feces, sugar 100 mmol/L, no phenylboronic acid, 7 days
[40] = No feces, sugar 100 mmol/L, no phenylboronic acid, 14 days
[41] = No feces, sugar 100 mmol/L, no phenylboronic acid, 21 days

SMILES: OC[C@@H](O)[C@@H](O)[C@H](O)[C@@H](O)CO [Sorbitol, sorbitol]
- Hb concentration [1]: 250 µg/L
- Recovery ratio with respect to Hb concentration after 0 days [1]: 88%
- Hb concentration [2]: 235 µg/L
- Recovery ratio with respect to Hb concentration after 0 days [2]: 83%
- Hb concentration [3]: 223 µg/L
- Recovery ratio with respect to Hb concentration after 0 days [3]: 79%
- Hb concentration [4]: 294 µg/L
- Recovery ratio with respect to Hb after 0 days [4]: 100%
- Hb concentration [5]: 163 µg/L
- Recovery ratio with respect to Hb after 0 days [5]: 55%
- Hb concentration [6]: 145 µg/L
- Recovery ratio with respect to Hb after 0 days [6]: 49%
- Hb concentration [7]: 278 µg/L
- Recovery ratio with respect to Hb concentration after 0 days [7]: 100%
- Hb concentration [8]: 292 µg/L
- Recovery ratio with respect to Hb after 0 days [8]: 100%
- Hb concentration [9]: 244 µg/L
- Recovery ratio with respect to Hb concentration after 0 days [9]: 88%
- Hb concentration [10]: 246 µg/L
- Recovery ratio with respect to Hb after 0 days [10]: 84%
- Hb concentration [11]: 226 µg/L
- Recovery ratio with respect to Hb concentration after 0 days [11]: 81%
- Hb concentration [12]: 233 µg/L
- Recovery ratio with respect to Hb after 0 days [12]: 80%
- Hb concentration [13]: 219 µg/L
- Recovery ratio with respect to Hb concentration after 0 days [13]: 79%
- Hb concentration [14]: 273 µg/L
- Recovery ratio with respect to Hb after 0 days [14]: 100%
- Hb concentration [15]: 247 µg/L
- Recovery ratio with respect to Hb after 0 days [15]: 90%
- Hb concentration [16]: 230 µg/L
- Recovery ratio with respect to Hb after 0 days [16]: 84%
- Hb concentration [17]: 278 µg/L
- Recovery ratio with respect to Hb concentration after 0 days [17]: 100%
- Hb concentration [18]: 98 µg/L
- Recovery ratio with respect to Hb concentration after 0 days [18]: 35%
- Hb concentration [19]: 62 µg/L
- Recovery ratio with respect to Hb concentration after 0 days [19]: 22%
- Hb concentration [20]: 56 µg/L
- Recovery ratio with respect to Hb concentration after 0 days [20]: 20%
- Hb concentration [21]: 281 µg/L
- Recovery ratio with respect to Hb concentration after 0 days [21]: 100%
- Hb concentration [22]: 261 µg/L
- Recovery ratio with respect to Hb concentration after 0 days [22]: 93%
- Hb concentration [23]: 251 µg/L
- Recovery ratio with respect to Hb concentration after 0 days [23]: 89%
- Hb concentration [24]: 265 µg/L
- Recovery ratio with respect to Hb concentration after 0 days [24]: 94%
- Hb concentration [25]: 291 µg/L
- Recovery ratio with respect to Hb after 0 days [25]: 100%
- Hb concentration [26]: 277 µg/L
- Recovery ratio with respect to Hb after 0 days [26]: 95%
- Hb concentration [27]: 273 µg/L
- Recovery ratio with respect to Hb after 0 days [27]: 94%
- Hb concentration [28]: 276 µg/L
- Recovery ratio with respect to Hb concentration after 0 days [28]: 100%
- Hb concentration [29]: 288 µg/L
- Recovery ratio with respect to Hb after 0 days [29]: 100%
- Hb concentration [30]: 252 µg/L
- Recovery ratio with respect to Hb concentration after 0 days [30]: 91%
- Hb concentration [31]: 274 µg/L
- Recovery ratio with respect to Hb after 0 days [31]: 95%
- Hb concentration [32]: 244 µg/L
- Recovery ratio with respect to Hb concentration after 0 days [32]: 88%
- Hb concentration [33]: 268 µg/L
- Recovery ratio with respect to Hb after 0 days [33]: 93%
- Hb concentration [34]: 255 µg/L
- Recovery ratio with respect to Hb concentration after 0 days [34]: 92%
- Hb concentration [35]: 290 µg/L
- Recovery ratio with respect to Hb after 0 days [35]: 100%
- Hb concentration [36]: 295 µg/L
- Recovery ratio with respect to Hb after 0 days [36]: 102%
- Hb concentration [37]: 293 µg/L
- Recovery ratio with respect to Hb after 0 days [37]: 101%
- Hb concentration [38]: 255 µg/L
- Recovery ratio with respect to Hb concentration after 0 days [38]: 100%
- Hb concentration [39]: 239 µg/L
- Recovery ratio with respect to Hb concentration after 0 days [39]: 94%
- Hb concentration [40]: 235 µg/L
- Recovery ratio with respect to Hb concentration after 0 days [40]: 92%
- Hb concentration [41]: 236 µg/L
- Recovery ratio with respect to Hb concentration after 0 days [41]: 93%
- recovery ratio of hemoglobin in the sample (sugar 100 mmol/L further added to other arylboronic acids (3-CPBA, 3-HPBA, 3-APBA) 15 mmol/L, Feces 1, Feces 2, Feces 3): further improved
- recovery ratio of hemoglobin in the samples containing fecal specimens (sugar 100 mmol/L, preservation solutions containing no phenylboronic acid): does not improve
- recovery ratio of hemoglobin in the sample (sugar 50 or 100 mmol/L further added to phenylboronic acid 15 mmol/L, Feces 1, Feces 2, Feces 3): remarkably improved
- recovery ratio of hemoglobin in the samples containing feces (sugar added to phenylboronic acid 15 mmol/L, Feces 1, Feces 2, Feces 3): improved depending on the added concentration

Source: patent US12215140B2, “Method of stabilizing protein contained in specimen and solution for stabilizing protein contained in specimen” (EIKEN KAGAKU KABUSHIKI KAISHA, priority 2018, dated 2025)
